From patent USRE47512E1, “Imidazole and imidazolium resins and methods for preparing curable imidazolium antimicrobial resins” (DENTSPLY SIRONA INC., priority 2011, dated 2019)

Assay: Solubility of resins @ 37° C.
Format: physicochemical

For “Isosorbide-based Bisimidazole-dimethacrylate Resin [Example 1]”, the “Solubility @ 37° C. in water” value (Table I) was “partially” and the “Solubility @ 37° C. in water/ethanol (50:50, w/w %)” value (Table I) was “soluble”.
In the case of “HEMA-based Monoimidazole-dimethacrylate Resin [Example 3a]”, the “Solubility @ 37° C. in water” value (Table I) is reported as “partially” and the “Solubility @ 37° C. in water/ethanol (50:50, w/w %)” value (Table I) is reported as “soluble”.
With “TCDC-based Bisimidazole-dimethacrylate Resin [Example 2]” the “Solubility @ 37° C. in water” value (Table I) was “partially” and the “Solubility @ 37° C. in water/ethanol (50:50, w/w %)” value (Table I) was “soluble”.
With “Isosorbide-based Bisimidazoliumbromide-dimethacrylate Resin [Example 5]” the “Solubility @ 37° C. in EtOH” value (Table II, EtOH) was “soluble” and the “Solubility @ 37° C. in water/ethanol (50:50, w/w %)” value (Table II) was “soluble”.
